Patent US9023876B2, “Compounds and methods for regulating integrins” (Adhaere Pharmaceuticals, Inc., priority 2010, dated 2015)

Tested on: WT mouse macrophages and neutrophils
Assay: Secretion of pro-inflammatory cytokines by stimulated WT mouse macrophages and neutrophils
Type: cell-based
Conditions: cells stimulated with LPS, TNFalpha or ILbeta
Description: We surmised that leukadherins may also suppress pro-inflammatory cytokine express-ion in leukocytes. […] In an experiment to test the effect of leukadherin treatment on secretion of pro-inflammatory cytokines by leukocytes, we stimulated WT mouse macrophages and neutrophils with LPS, TNFalpha or ILbeta in the absence or presence of two different concentrations of agonist LA1 and measured levels of pro-inflammatory cytokine in the cell supernatant. […] Leukadherins decrease secretion of pro-inflammatory factors, including microparticles, by beta2-integrin expressing cells. Additionally, they increase secretion of anti-inflammatory factors, such as IL-10.

For `O=C(O)c1ccc(-c2ccc(/C=C3\SC(=S)N(Cc4ccccc4)C3=O)o2)cc1` [LA1], the “secretion of inflammatory factors (IL-6, TNFa, IL-1b, IFNg, MMP-9, soluble uPAR) in supernatant” value was “significantly decreased”.
